# Where a name gives a salt, the structure may show the parent alone.
# Assays:
# [1] = test system: LC3; experiment: Autophagy activity of control compounds by immunoblotting (Experimental Example 4); assay type: cell-based, human; settings: different concentrations and different times; immunoblot, FIG. 5
# Description: In order to investigate the autophagy activity efficacy of control compounds, immunoblotting was performed in the same manner as in Experimental Example 2 by using LC3 as a marker. As the control compounds, compounds having the following structure were used.
# [2] = biological target: T1, p62 protein (Homo sapiens, UniProt Q13501); experiment: Oligomerization activity of p62 protein by immunoblotting (Experimental Example 1); assay type: cell-based; settings: HEK293 cell lysate treated with test compounds at room temperature for 2 hours; immunoblot, FIG. 2
# T1 construct: endogenous in cells; host or cells: HEK293 (lysate treated with compounds)
# T1 sequence (Q13501 whole entry): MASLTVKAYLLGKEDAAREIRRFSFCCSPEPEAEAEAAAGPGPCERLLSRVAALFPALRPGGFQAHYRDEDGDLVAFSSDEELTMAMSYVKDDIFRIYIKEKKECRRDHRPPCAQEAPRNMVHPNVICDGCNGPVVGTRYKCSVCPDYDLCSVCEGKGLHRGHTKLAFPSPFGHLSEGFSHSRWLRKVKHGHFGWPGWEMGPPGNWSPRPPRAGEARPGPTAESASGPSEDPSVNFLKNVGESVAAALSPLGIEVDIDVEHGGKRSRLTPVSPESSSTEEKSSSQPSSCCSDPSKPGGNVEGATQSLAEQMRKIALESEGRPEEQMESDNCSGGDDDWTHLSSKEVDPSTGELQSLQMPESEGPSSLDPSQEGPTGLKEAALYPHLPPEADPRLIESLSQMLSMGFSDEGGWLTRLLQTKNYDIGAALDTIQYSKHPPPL
# Excerpt: In order to evaluate the p62 protein oligomerization activity efficacy by the compounds (Examples 1-25), HEK293 cell line, which is human embryonic kidney-derived cell, was collected. As the representative compounds among the present compounds, the compounds of Examples 1, 2, 3, 5, 6, 7, 8, 9, 12, and 13 (Example 10 (YT-5-1), Example 11 (YT-5-2), Example 12 (YT 5-7), Example 13 (YT 5-8), Example 15 (YT-8-7), Example 16 (YT-8-8), Example 17 (YTK-107), Example 18 ([…]), Example 20 (ATB10041), Example 21 (ATB10042), Example 22 (ATB10043), Example 23 (ATB10044), Example 24 (ATB10045) and Example 25 (ATB10046)) were selected. In order to measure intracellular p62 protein activation and oligomerization according to the treatment with these selected representative compounds, the respective cells were dispensed into a 100 pi dish. The cells were collected after further culturing for 24 hours so that the cells were completely attached to the surface of the plate. 100 ul of lysis buffer (20 mM Tris, pH 7.4), 150 mM NaCl, 1% Triton X-100, 2 mM NaF, 2 mM EDTA, 2 mM beta-glycerophosphate, 5 mM sodium orthovanadate, 1 mM PMSF, leupeptin, aprotinin) were injected into each sample and the cells were lysed. Based on the measured total protein concentration, each sample was treated with test compounds at room temperature for 2 hours, and then a sample buffer was added and allowed to react at 95° C. for 10 minutes. 25 ul was taken from the samples after the reaction, and dispensed into each well of acrylamide gel, and then immunoblotting was performed.
# [3] = test system: LC3; experiment: Autophagy activity in cultured cells by immunoblotting, treatment time (Experimental Example 3); assay type: cell-based, human; settings: HeLa cells; 5 μM for 1, 3, 6, 12, 24, 48 hours or 10 μM for 24 hours; immunoblot, FIG. 4
# Description: In order to investigate the autophagy activity efficacy by the compounds (Examples 1-25), immunoblotting was performed in the same manner as in Experimental Example 2 using LC3 as a marker. As for the difference, in order to evaluate the treatment time required for activation and the activity retention time, 5 μM of the representative compounds selected among the present compounds (Example 5 (YTK-1005), Example 6 (YTK-1205), Example 7 (YTK-1305), Example 2 (YTK-2205), Example 3 (YTK-3305), Example 14 (YTK-1108), Example 8 (YTK-105), Example 9 (YTK-205)) were treated for 1, 3, 6, 12, 24, 48 hours. On the other hand, 10 μM of the representative compounds selected among the present compounds (Example 10 (YT 5-1), Example 11 (YT 5-2), Example 16 (YT 8-8), Example 15 (YT 8-7), Example 17 (YTK-107), Example 18 (YTK-207), Example 20 (ATB10041), Example 21 (ATB10042), Example 22 (ATB10043), Example 23 (ATB10044), Example 24 (ATB10045), Example 25 (ATB10046)) were treated for 24 hours.
SMILES,autophagy activity (level of LC3) of control compounds [1],"p62 protein oligomerization activity (monomer, oligomers and high-molecular aggregates) [2]",autophagy activity (level of LC3) [3]
"c1ccc(COc2ccc(OC[C@H]3CO3)cc2OCc2ccccc2)cc1 [Example 1103, (R)-2-((3,4-bis(benzyloxy)phenoxy)methyl)oxirane]",do not increase autophagy activity,,
"O=C(NCCO)NCc1ccc(OCc2ccccc2)c(OCc2ccccc2)c1 [ATB10041, 1-(3,4-bis(benzyloxy)benzyl)-3-(2-hydroxyethyl)urea]",,increasing the p62 protein oligomerization activity,increasing the autophagy activity
"Oc1ccc(OCc2ccccc2)c(OCCc2ccccc2)c1 [Example 1202, 4-(benzyloxy)-3-phenethoxyphenol]",do not increase autophagy activity,,
"O=Cc1ccc(OCc2ccccc2)c(OCc2ccccc2)c1 [Example 1101, 3,4-bis(benzyloxy)benzaldehyde]",do not increase autophagy activity,,
"OCCNCc1cc(Cl)c(OCc2ccccc2)c(OCc2ccccc2)c1 [ATB10046, 2-((3,4-bis(benzyloxy)-5-chlorobenzyl)amino)ethan-1-ol]",,increasing the p62 protein oligomerization activity,increasing the autophagy activity
"OCCNCCNCc1ccc(OCc2ccccc2)c(OCc2ccccc2)c1 [YTK-HCl-1108, 2-((2-((3,4-bis(benzyloxy)benzyl)amino)ethyl)amino)ethan-1-ol]",,,increasing the autophagy activity
"OCCCCc1ccc(OCc2ccccc2)c(OCc2ccccc2)c1 [YTK-1105-1, 4-(3,4-bis(benzyloxy)phenyl)butan-1-ol]",do not increase autophagy activity,,
"NC(=O)CNCc1ccc(OCc2ccccc2)c(OCc2ccccc2)c1 [ATB10044, 2-((3,4-bis(benzyloxy)benzyl)amino)acetamide]",,increasing the p62 protein oligomerization activity,increasing the autophagy activity
"O=Cc1ccc(OCCc2ccccc2)c(OCCc2ccccc2)c1 [Example 2201, 3,4-diphenethoxybenzaldehyde]",do not increase autophagy activity,,
"Oc1ccc(OCCc2ccccc2)c(OCCc2ccccc2)c1 [Example 2202, 3,4-diphenethoxyphenol]",do not increase autophagy activity,,
"Oc1ccc(OCc2ccccc2)c(OCCCCc2ccccc2)c1 [Example 1402, 4-(benzyloxy)-3-(4-phenylbutoxy)phenol]",do not increase autophagy activity,,
"OCCNCc1ccc(OCc2ccccc2)c(OCCc2ccccc2)c1 [YTK-HCl-1205, 2-((4-(benzyloxy)-3-phenethoxybenzyl)amino)ethan-1-ol]",,,increasing the autophagy activity
"OCCNCc1ccc(OCc2ccccc2)c(OCCCc2ccccc2)c1 [YTK-HCl-1305, 2-((4-(benzyloxy)-3-(3-phenylpropoxy)benzyl)amino)ethan-1-ol]",,,increasing the autophagy activity
"O=Cc1ccc(OCc2ccccc2)c(OCCCCc2ccccc2)c1 [Example 1401, 4-(benzyloxy)-3-(4-phenylbutoxy)benzaldehyde]",do not increase autophagy activity,,
"c1ccc(CCOc2cc(OC[C@H]3CO3)ccc2OCc2ccccc2)cc1 [Example 1203, (R)-2-((4-(benzyloxy)-3-phenethoxyphenoxy)methyl)oxirane]",do not increase autophagy activity,,
"Oc1ccc(OCc2ccccc2)c(OCCCc2ccccc2)c1 [Example 1302, 4-(benzyloxy)-3-(3-phenylpropoxy)phenol]",do not increase autophagy activity,,
"OCCNCc1ccc(OCCCc2ccccc2)c(OCCCc2ccccc2)c1 [YTK-HCl-3305, 2-((3,4-bis(3-phenylpropoxy)benzyl)amino)ethan-1-ol]",,,increasing the autophagy activity
"Oc1ccc(OCc2ccccc2)c(OCc2ccccc2)c1 [Example 1102, 3,4-bis(benzyloxy)phenol]",do not increase autophagy activity,,
"N[C@H](CNCc1ccc(OCc2ccccc2)c(OCc2ccccc2)c1)C(=O)O [ATB10043, (R)-2-amino-3-((3,4-bis(benzyloxy)benzyl)amino)propanoic acid]",,increasing the p62 protein oligomerization activity,increasing the autophagy activity
"COc1cc(CNCCO)cc(OCc2ccccc2)c1OCc1ccccc1 [ATB10045, 2-((3,4-bis(benzyloxy)-5-methoxybenzyl)amino)ethan-1-ol]",,increasing the p62 protein oligomerization activity,increasing the autophagy activity
"O=C(CO)NCc1ccc(OCc2ccccc2)c(OCc2ccccc2)c1 [ATB10042, N-(3,4-bis(benzyloxy)benzyl)-2-hydroxyacetamide]",,increasing the p62 protein oligomerization activity,increasing the autophagy activity
"O=Cc1ccc(OCc2ccccc2)c(OCCc2ccccc2)c1 [Example 1201, 4-(benzyloxy)-3-phenethoxybenzaldehyde]",do not increase autophagy activity,,
"O=Cc1ccc(OCc2ccccc2)c(OCCCc2ccccc2)c1 [Example 1301, 4-(benzyloxy)-3-(3-phenylpropoxy)benzaldehyde]",do not increase autophagy activity,,
"OCCNCc1ccc(OCCc2ccccc2)c(OCCc2ccccc2)c1 [YTK-HCl-2205, 2-((3,4-diphenethoxybenzyl)amino)ethan-1-ol]",,,increasing the autophagy activity
"Oc1ccc(OCCCCc2ccccc2)c(OCCCCc2ccccc2)c1 [Example 4402, 3,4-bis(4-phenylbutoxy)phenol]",do not increase autophagy activity,,
